Consider one molecule from patent US7625713B2, “Process for identifying a ligand that binds to the NEP binding site for the SMR1 pentapeptide” (Institut Pasteur, priority 2000, dated 2009).

Where a SMILES comes first, the peptide text is derived from it.

The subject of the assay is male SPF Wistar/AF rats. Kind of assay: Aversive light stimulus avoidance test (ALSAT). The format is in vivo, rat. The settings on record: 50 μg/kg, I.V.; for Total number of times the two levers were pressed / Number of times AL pressed / Number of times IL pressed: mean ± SEM; for Number of times AL pressed: active lever; for Number of times IL pressed: inactive lever. How it is done:
Twenty four male SPF Wistar/AF rats weighing from 300 to 320 g were used. Upon reception, the rats were weighed, marked and distributed, in groups of 3, into F-type polycarbonate cages. The animals were housed in an air-conditioned animal house at a temperature of 22-24° C. Food and drink was available to the rats ad libitum. They were subjected to a 12-hour light/dark cycle (light from 8 pm to 8 am).
After a period of familiarization with the laboratory conditions of one week, the 24 rats were randomly divided into 2 groups (n=12). The rats from the various groups were all handled in the same way and under the same conditions.
The rat is placed in the cage for 20 minutes and the number of times each lever is pressed is counted during the experiment.
This model uses the aversion of the rat to a brightly lit environment. During the familiarization session and the learning session, the rat learns to control the aversive light environment of the test device in the context of operant conditioning: the animal learns to press the active lever in order to obtain periods of darkness.
The learning test is made up over two sessions: • Session 1, familiarization with the experimental device (day 1); • Session 2, learning test (day 2).
The QHNPR (SEQ ID NO: 2) peptide is suspended in a proportion of 500 μg per 5 ml of 0.01 N acetic acid, and then diluted with PBS in order to be administered at the dose of 50 μg/kg, via the i.v. route, in the dorsal caudal vein of the rat, 1 minute before the test.
A two-sided probability unpaired t-test was used to compare the lever-pressing activity of the two groups of rats.
The results are expressed as mean±standard error of the mean (SEM).

With `N=C(N)NCCC[C@H](NC(=O)[C@@H]1CCCN1C(=O)[C@H](CC(N)=O)NC(=O)[C@H](Cc1c[nH]cn1)NC(=O)[C@@H](N)CCC(N)=O)C(=O)O` [sialorphin, Gln-His-Asn-Pro-Arg] (H-QHNPR-OH; N-terminus and C-terminus assumed), the “Total number of times the two levers were pressed” value is, setting by setting: (Session 1, 1 minute before the test) 10.08 ± 1.98; (Session 2) 5.25 ± 5.09. Moreover, the “Number of times AL pressed” value by setting is: (Session 1) 4.83 ± 1.02; (Session 2) 2.67 ± 0.47. Further, the “Number of times IL pressed” value (Session 1) came out at 5.25 ± 1.14 and the “Number of times IL pressed” value (Session 2) was found to be 2.58 ± 0.94. Besides, for the setting “both test sessions”, the “Distinction between the levers” value was “no distinction between the two levers”.
